Patent US20080138395A1, “Pharmaceutical Composition for the Prevention and Control of Cancer” (priority 2005, published 2008)

System: H69: human, small cell lung carcinoma
Assay: Apoptosis (Annexin testing system) and defective cells in H69 tumor cells in vitro
Type: cell-based
Settings: 10 days of treatment
Source text: The effect of reduced glutathion (G-SH) and anthocyans and betacyans on tumor cell lines, specifically H69: human, small cell lung carcinoma, was examined by in vitro studies, both individually and with various combinations of the ingredient. G-SH and betalain were used in the form of dry extract from beta vulgaris (product: Betatom by Messrs. Sprüh-Atom Schumann & Sohn GmbH, Karlsruhe) and, for purposes of comparison, anthocyans in the form of dry extract from cassis (black currant) and vaccinium (blueberry). The tumor cells were sown in vitro in DMEM with 10% FCS. The final concentration of G-SH, Betatom, cassis and vaccinium, the substances added, was 1 mM. Apoptosis was measured with an Annexin testing system. All tests were repeated once. The effect on H69 tumor cells may be gathered from the table below. After treatment of the cells for ten days, the number both of apoptotic and defective cells was clearly higher in comparison with untreated controls.

[1] = 1 mM, difference to untreated control
[2] = final concentration of substances added 1 mM, DMEM with 10% FCS

SMILES: N[C@@H](CCC(=O)N[C@@H](CS)C(=O)NCC(=O)O)C(=O)O [GSH, gamma glutamyl cysteinyl glycin]
- apoptotic cells: variation compared with control (%) [1]: −5%
- defective cells: variation compared with control (%) [1]: 8.9%
- apoptotic cells (% of total cells) [2]: 21.9 % of total cells
- defective cells (% of total cells) [2]: 37.9 % of total cells
